One molecule from patent publication US11339148B2, “Crystalline forms of the CXCR7 receptor antagonist (3S,4S)-1-Cyclopropylmethyl-4-{[5-(2,4-difluoro-phenyl)-isoxazole-3-carbonyl]-amino}-piperidine-3-carboxylic acid (1-pyrimidin-2-yl-cyclopropyl)-amide” (IDORSIA PHARMACEUTICALS LTD., priority 2018, dated 2022) can be followed below.

The nature of this data set: Gravimetric vapour sorption (GVS) / moisture sorption. The class given is physicochemical. The note with it: at 95% RH; 25° C. On the procedure: Gravimetric Vapour Sorption (GVS) Analysis
Measurements are performed on a multi sample instrument SPS-100n (Projekt Messtechnik, Ulm, Germany) operated in stepping mode at 25° C.

With `O=C(N[C@H]1CCN(CC2CC2)C[C@@H]1C(=O)NC1(c2ncccn2)CC1)c1cc(-c2ccc(F)cc2F)on1` [Example 2, (3S,4S)-1-Cyclopropylmethyl-4-{[5-(2,4-difluoro-phenyl)-isoxazole-3-carbonyl]-amino}-piperidine-3-carboxylic acid (1-pyrimidin-2-yl-cyclopropyl)-amide in Crystalline Form 2], the Moisture sorption result is on record as “Sorption of 6.9% at 95% RH”.
